From ChEMBL document CHEMBL4024756, “Identification of 4-Phenoxyquinoline Based Inhibitors for L1196M Mutant of Anaplastic Lymphoma Kinase by Structure-Based Design” (J Med Chem, 2017)

Tests used:
[1] = AUClast in rat at 1 mg/kg, iv; type: ADME, organism-based; set-up: dose 1 mg/kg, time 0 - last, route intravenous; conditions: in vivo
[2] = Cmax in rat at 1 mg/kg, iv; type: ADME, organism-based; set-up: dose 1 mg/kg, route intravenous; conditions: in vivo
[3] = AUClast in rat at 10 mg/kg, po; type: ADME, organism-based; set-up: dose 10 mg/kg, time 0 - last, route oral; conditions: in vivo
[4] = Oral bioavailability in rat at 10 mg/kg; type: ADME, organism-based; conditions: in vivo
[5] = Cmax in rat at 10 mg/kg, po; type: ADME, organism-based; set-up: dose 10 mg/kg, route oral; conditions: in vivo
[6] = Tmax in rat at 10 mg/kg, po; type: ADME, organism-based; conditions: in vivo
[7] = Half life in rat at 1 mg/kg, iv; type: ADME, organism-based; conditions: in vivo
[8] = Tmax in rat at 1 mg/kg, iv; type: ADME, organism-based; conditions: in vivo
[9] = molecular target: Voltage-gated inwardly rectifying potassium channel KCNH2 (Homo sapiens, UniProt Q12809); experiment: Inhibition of human ERG by fluorescently labeled tracer binding method
[10] = Antiproliferative activity against human H2228/CR cells after 72 hrs by MTT assay; conditions: NCI-H2228, 72 h
[11] = test system: NCI-H2228; experiment: Antiproliferative activity against human NCI-H2228 cells after 72 hrs by MTT assay; conditions: NCI-H2228, 72 h

Sequence of Voltage-gated inwardly rectifying potassium channel KCNH2 (Q12809 whole entry): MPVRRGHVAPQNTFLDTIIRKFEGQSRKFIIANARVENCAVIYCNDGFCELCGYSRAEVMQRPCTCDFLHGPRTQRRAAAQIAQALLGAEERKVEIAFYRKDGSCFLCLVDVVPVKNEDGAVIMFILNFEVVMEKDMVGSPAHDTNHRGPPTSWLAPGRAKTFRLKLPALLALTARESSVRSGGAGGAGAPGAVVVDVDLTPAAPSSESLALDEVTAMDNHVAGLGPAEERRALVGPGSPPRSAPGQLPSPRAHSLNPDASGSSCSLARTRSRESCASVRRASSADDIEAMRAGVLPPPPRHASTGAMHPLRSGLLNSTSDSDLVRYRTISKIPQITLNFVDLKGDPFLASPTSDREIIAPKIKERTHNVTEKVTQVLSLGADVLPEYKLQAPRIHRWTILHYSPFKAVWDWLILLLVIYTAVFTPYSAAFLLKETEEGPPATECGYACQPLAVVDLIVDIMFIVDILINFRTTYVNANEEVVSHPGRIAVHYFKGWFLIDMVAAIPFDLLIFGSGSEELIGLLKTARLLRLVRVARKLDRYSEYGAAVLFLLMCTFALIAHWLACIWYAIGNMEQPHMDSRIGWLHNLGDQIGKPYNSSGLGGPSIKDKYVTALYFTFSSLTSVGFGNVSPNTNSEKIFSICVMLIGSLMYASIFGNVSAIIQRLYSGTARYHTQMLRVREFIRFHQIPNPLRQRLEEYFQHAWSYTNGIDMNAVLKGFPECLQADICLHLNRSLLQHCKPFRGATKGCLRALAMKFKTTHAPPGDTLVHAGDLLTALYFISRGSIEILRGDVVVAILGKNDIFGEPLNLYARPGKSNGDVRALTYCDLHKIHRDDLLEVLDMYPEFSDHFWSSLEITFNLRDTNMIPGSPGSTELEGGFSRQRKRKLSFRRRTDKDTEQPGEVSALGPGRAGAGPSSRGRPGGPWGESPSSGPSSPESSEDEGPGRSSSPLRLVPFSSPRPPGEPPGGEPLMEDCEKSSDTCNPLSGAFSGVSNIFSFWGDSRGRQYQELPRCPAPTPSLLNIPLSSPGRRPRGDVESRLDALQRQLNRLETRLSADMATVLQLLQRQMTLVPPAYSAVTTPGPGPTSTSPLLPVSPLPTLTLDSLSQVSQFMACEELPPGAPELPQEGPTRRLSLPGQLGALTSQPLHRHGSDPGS

AUC(0-t) [1] [ng·h/mL] | Cmax [2] [ng/mL] | AUC(0-t) [3] [ng·h/mL] | bioavailability [4] [%] | Cmax [5] [ng/mL] | Tmax [6] [h] | half-life [7] [h] | Tmax [8] [min] | IC50 [11] [µM] | SMILES | IC50 [9] [µM] | IC50 [10] [µM]
155 | 83.5 | 384 | 24.8 | 78.4 | 6 | 3.5 | 6 |  | Oc1ccc(Oc2ccnc3cc(-c4cnn(C5CCNCC5)c4)ccc23)cc1 |  | 
95.9 | 48.9 | 437 | 45.5 | 83.9 | 4 | 10.7 | 6 |  | COc1ccc(Oc2ccnc3cc(-c4cnn(C5CCNCC5)c4)ccc23)cc1 | 2.46 | 
 |  |  |  |  |  |  |  | 2.5 | C[C@@H](Oc1cc(-c2cnn(C3CCNCC3)c2)cnc1N)c1c(Cl)ccc(F)c1Cl [CRIZOTINIB] |  | 10

SMILES | AUC(0-t) [1] [ng·h/mL] | Cmax [2] [ng/mL] | AUC(0-t) [3] [ng·h/mL] | bioavailability [4] [%] | Cmax [5] [ng/mL] | Tmax [6] [h] | half-life [7] [h] | Tmax [8] [min] | IC50 [11] [µM] | IC50 [9] [µM] | IC50 [10] [µM]
Cc1ccc(Oc2ccnc3cc(-c4cnn(C5CCNCC5)c4)ccc23)cc1 | 166 | 94.1 | 745 | 44.8 | 131 | 4 | 3.3 | 6 |  |  | 
